US4064010A, “Purification of uricase” (Eastman Kodak Company, priority 1976, dated 1977)

Target: Micrococcus luteus NRRL B-8166 uricase
Experiment: Assay of uricase (spectrophotometric, disappearance of uric acid at 290 nm)
Format: biochemical
Procedure: Uricase was assayed spectrophotometrically by following the disappearance of uric acid at 290 nm using a modification of the procedure described by Mahler et. al, J. Biol. Chem., 216, p. 625, (1955). Assay tubes contained 2.7 ml 50 mM KPi buffer pH 8.6, 0.1 mM sodium EDTA, 0.05 ml 6 mM urate, plus enzyme and water to give a final volume of 3.0 ml. Changes or additions to the assay mixtures were made when necessary. Tubes were incubated for 5 minutes at 30° C; the reaction was started by adding enzyme. Molar extinction coefficient for uric acid at 290 nm is 12,300. Activity was expressed in units of uricase activity, where a unit is that amount of enzyme which catalyzes the oxidation of one μmole of uric acid per minute at 30° C and pH 8.6.

| SMILES | Ki (read-out: inhibition constant for oxonate) | Km (substrate not given, the uricase assay uses urate, KPi buffer pH 8.6, 30° C, read-out: Michaelis constant) |
| --- | --- | --- |
| O=C(O)c1nc(=O)[nH]c(=O)[nH]1 [oxonate] | 4.5 µM |  |
| O=c1[nH]c(=O)c2[nH]c(=O)[nH]c2[nH]1 [uric acid] |  | 37 µM |
